Consider two compounds from patent US12729368B2, “Methods and compositions for generating oligodendrocyte progenitor cells” (Trailhead Biosystems Inc., priority 2022, dated 2026).

Where “and” joins values, the source holds several entries; their conditions need not be identical. Identical values can stand only once.

What all share (assay type): cell-based, human
For experiment [1], the system named is pre-OPCs. Nature of the experiment: HD-DoE 12-factor model for stage 2 (version 1), 3 days on stage 1 pre-OPCs. The conditions noted are these: for factor contribution: optimized for maximum expression of OLIG2 at 1841.6. The procedure, abridged:
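Cells grown first in stage 1 medium were treated for 3 days with combinations of 8 or 12 factors, including FGF, TGF-b, WNT, RA, AKT, SHH, mTOR and PKC pathway modulators. Gene expression was modelled and maximized for OLIG2, with NKX2-2, SOX10, OLIG1 and PDGFRa tracked by dynamic profile analysis.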

For experiment [2], the system named is pre-OPCs. Nature of the experiment: HD-DoE 8-factor model for stage 2 (version 2) on pre-OPCs. Particulars: positive. As to the method:
To engineer the recipe of stage 2 of differentiation, cells were first cultured in the stage 1 media described in Example 1, then, 48 or 96 different combinations of effectors generated using Design-of-Experiments compression through D-optimality were robotically prepared. The effector combinations were prepared in a basal media and were subsequently added to the cells, which were then allowed to differentiate. Three days later RNA extraction was performed, and gene expression was obtained using quantitative PCR analysis. The data was normalized and modeled using partial least squares regression analysis to the effector design, resulting in the generation of gene-specific models, which after model tuning for maximal predictive power, provided explanation of the effectors ability to control the expression of individual genes, combinatorically, and individually. Solutions within the tested space could then be explored to address desirability.
At this point, due to short duration of culture (only six days in vitro) we decided to focus on maximal expression of OLIG2 and maintenance of high expression of NKX2-2, while initiating expression of SOX10, OLIG1 and PDGFRa, to guide the cells towards oligodendrocyte fate (Emery and Lu (2015). Cold Spring Harb Perspect Biol. 7:a020461; Perlman et al. (2020). Glia 68:1291-1303; Goldman and Kuypers (2015) Development 142:3983-95). In one 8-factor model, the individual and combinatorial impact of CHIR99021 (a WNT pathway agonist), AGN193109 (an RA pathway antagonist), FGF-2 (an FGFR agonist), Purmorphamine (an SHH pathway agonist), AICAR (an AMPK agonist), GW3965 (an LXR pathway agonist), GW590735 (a PPAR-a agonist) and AZD3147 (a mTOR antagonist) on further differentiation of cells were tested.

In experiment [3] the test system is cells cultured in stage 1 and stage 2 differentiation media. The experiment is described as follows: HD-DoE 8-factor model for stage 3 (version 2). The conditions noted are these: for factor contribution: positive.
Setting [4] is: optimized for maximum expression of OLIG1 at 454.7.
Where [5] appears, read: optimized for maximum expression of OLIG2 at 3325.

Turning to `c1ccc2c(Oc3nc(Nc4ccc(N5CCOCC5)cc4)c4ncn(C5CCCCC5)c4n3)cccc2c1` [Purmorphamine], the “effect on expression of SOX10” value with pre-OPCs [1] (dynamic profile, model maximized for OLIG2) is recorded as “positively regulate”. Besides, the factor contribution is 7.2 with pre-OPCs [1] (negative impact); 22.75 in the experiment on pre-OPCs [2] (setting [4]); 7.39 in the experiment on pre-OPCs [2] (setting [5]); 20.6 and 20.61 in experiment [3] (optimized for maximum expression of PDGFRa at 853.4).

For “FGF2: FGF pathway activator, an FGFR agonist”, the factor contribution with pre-OPCs [1] (positive regulatory effect) turned out to be 12.9; with pre-OPCs [2] (setting [4]) it was 9.9; in the experiment on pre-OPCs [2] (setting [5]), 5.2; in experiment [3] (optimized for SOX10 at 41.04) it was 15.3. In addition, the “effect on late OPC genes and neuronal genes” value in experiment [3] (factor plots vs concentration) is on record as “increased the expression levels of OPC genes while decreasing the expression levels of neuronal genes”.
